Results: patent publication US20230212180A1, “SUBSTITUTED PYRAZINE COMPOUND, PHARMACEUTICAL COMPOSITION COMPRISING SAME, AND USE THEREOF” (Sichuan Kelun-Biotech Biopharmaceutical Co., Ltd., priority 2020, published 2023)
Read-outs that look alike come from different tables or passages of the source.

Columns and labels:
CYP3A4 = target: T1, CYP3A4 (Homo sapiens, UniProt P08684); experiment: Biochemical assay for CYP enzyme inhibition, P450-Glo CYP3A4 Screening System; assay type: in vitro ADME
T1 construct: purchased Promega
T1 sequence (P08684 whole entry): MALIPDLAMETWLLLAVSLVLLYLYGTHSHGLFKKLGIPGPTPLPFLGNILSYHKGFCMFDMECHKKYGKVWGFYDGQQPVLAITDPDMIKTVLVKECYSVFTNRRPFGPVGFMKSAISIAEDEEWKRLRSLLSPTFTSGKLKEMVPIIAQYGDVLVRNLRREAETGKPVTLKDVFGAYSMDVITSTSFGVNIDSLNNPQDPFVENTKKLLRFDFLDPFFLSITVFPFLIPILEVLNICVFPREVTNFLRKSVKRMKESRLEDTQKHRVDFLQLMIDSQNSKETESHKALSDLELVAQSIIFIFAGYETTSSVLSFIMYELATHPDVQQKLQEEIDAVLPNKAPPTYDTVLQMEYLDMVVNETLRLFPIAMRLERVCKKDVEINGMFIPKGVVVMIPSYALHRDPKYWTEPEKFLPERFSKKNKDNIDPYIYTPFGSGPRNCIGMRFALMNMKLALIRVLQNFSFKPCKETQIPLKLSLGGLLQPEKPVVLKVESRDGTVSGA
Method: (§1) Test Example 5: Biochemical Assay for CYP Enzyme (Cytochrome P450) Inhibition
P450-Glo™ CYP3A4 Screening System, (Promega).
(§2) BMG PHERAstar FS Luminescent.
(§3) The experiments were carried out separately according to the instructions of the kits. The steps were as follows:
3.3. Inhibition Against CYP3A4:
(§4) Test group: The test compounds at different concentrations were added into a microplate, and Luciferin-IPA (3 NM), K3PO4 (100 mM), and CYP3A4 (2 nM) were added into each well, and pre-incubated at room temperature for 10 min. Thereafter, an NADPH regeneration system was added. The mixture was reacted at room temperature for 30 min. Finally, an equal volume of detection buffer was added and incubated at room temperature for 20 min, followed by chemiluminescence detection.
(§5) Negative control group: The experimental method for the negative control group was the same as that for the test group, except that the test compound was not added.
Blank control group: The experimental method for the blank control group was the same as that for the test group, except that the test compound was not added and that CYP3A4 was replaced with CYP3A4 Membrance (2 nM).
(§6) Percentage inhibition=(1−(the chemiluminescent signal value of the test compound group at a certain test concentration−the chemiluminescent signal value of the blank control group)/(the chemiluminescent signal value of the negative control group−the chemiluminescent signal value of the blank control group))×100%.
(§7) When the percentage inhibition was between 30% and 80%, a single value or a value range of the half maximal inhibitory concentration (IC50) of the compound against the CYP enzyme was estimated based on the following equation: IC50=X×(1−percentage inhibition)/percentage inhibition, wherein X was the test concentration of the compound.

hERG = target: T2, hERG (Homo sapiens, UniProt Q12809); experiment: Biochemical assay for hERG inhibition (Predictor hERG Fluorescence Polarization Assay Kit); assay type: binding
T2 construct: purchased ThermoFisher
T2 sequence (Q12809 whole entry): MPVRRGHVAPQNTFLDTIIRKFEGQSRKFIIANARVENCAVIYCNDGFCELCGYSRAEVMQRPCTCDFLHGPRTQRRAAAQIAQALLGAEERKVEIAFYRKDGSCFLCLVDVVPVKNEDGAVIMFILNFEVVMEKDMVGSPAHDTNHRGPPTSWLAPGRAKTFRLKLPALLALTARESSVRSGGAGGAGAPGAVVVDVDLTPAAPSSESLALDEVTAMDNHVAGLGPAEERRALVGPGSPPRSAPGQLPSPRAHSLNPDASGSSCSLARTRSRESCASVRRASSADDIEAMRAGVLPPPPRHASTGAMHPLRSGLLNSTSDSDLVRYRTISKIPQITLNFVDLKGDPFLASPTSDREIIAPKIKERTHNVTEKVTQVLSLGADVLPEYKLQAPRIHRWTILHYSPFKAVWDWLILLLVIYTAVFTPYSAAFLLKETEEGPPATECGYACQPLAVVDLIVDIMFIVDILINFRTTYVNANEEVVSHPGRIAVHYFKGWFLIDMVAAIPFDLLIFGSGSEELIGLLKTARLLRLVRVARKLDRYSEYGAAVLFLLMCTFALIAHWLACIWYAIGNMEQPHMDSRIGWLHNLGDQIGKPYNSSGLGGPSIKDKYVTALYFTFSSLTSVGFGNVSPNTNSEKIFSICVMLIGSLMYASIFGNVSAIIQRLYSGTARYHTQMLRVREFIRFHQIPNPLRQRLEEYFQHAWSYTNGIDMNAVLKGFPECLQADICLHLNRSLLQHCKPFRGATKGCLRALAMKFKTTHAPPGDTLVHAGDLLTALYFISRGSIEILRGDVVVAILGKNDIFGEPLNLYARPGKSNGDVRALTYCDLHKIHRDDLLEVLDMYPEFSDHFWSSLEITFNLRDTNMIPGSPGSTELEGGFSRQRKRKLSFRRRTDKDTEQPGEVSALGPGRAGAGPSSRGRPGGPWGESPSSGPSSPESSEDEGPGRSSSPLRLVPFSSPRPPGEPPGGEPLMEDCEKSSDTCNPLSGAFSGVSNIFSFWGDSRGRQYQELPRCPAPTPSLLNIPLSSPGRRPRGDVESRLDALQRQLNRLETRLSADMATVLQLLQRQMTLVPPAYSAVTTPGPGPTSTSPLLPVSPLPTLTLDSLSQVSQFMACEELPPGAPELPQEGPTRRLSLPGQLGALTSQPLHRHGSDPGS
Method: Test Example 3: Biochemical Assay for hERG Inhibition
kit: Predictor™ hERG Fluorescence Polarization Assay Kit (ThermoFisher) containing:
Compound E4031 as a positive control;
tracer concentration: 1 nM;
incubation duration: 2 hours;
parameters for microplate reader: BMG PHERAstar FS fluorescence microplate reader.
Test group: The test compounds at different concentrations were added into a microplate containing hERG cell membrane, and the tracer with a high affinity for hERG was then added into each well. The microplate was incubated at 25° C. for 2 hours before detection of the change in fluorescence polarization value (mP) (excitation wavelength: 540 nm; emission wavelength: 590 nm) using a multi-mode microplate reader.
Positive control group: The experimental method for the positive control group was the same as that for the test group, except that the test compound was replaced with 30 μM Compound E4031.
Blank control group: The experimental method for the blank control group was the same as that for the test group, except that the test compound was replaced with the hERG buffer and that the hERG cell membrane was not added.
Based on the data ratios, the percentage inhibition (%) of the compounds of the present disclosure against hERG at different concentrations was calculated and the range of the half maximal inhibitory concentration (IC50) of the compounds was determined. Percentage inhibition (%)=(1−(mP of the test compound−mP of the positive control group)/(mP of the blank control group−mP of the positive control group))×100%.

[1] = tested on: KYSE-520 cell (human esophageal squamous cell carcinoma cell); experiment: Inhibition of the proliferation activity of KYSE-520 cell (CellTiter-Glo); assay type: cell-based; conditions: 120 h, KYSE-520 cell proliferation, 5 days
Method in brief: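 KYSE-520 cells, 1500/well, adhered overnight, then exposed to compound in complete medium with 10% FBS for 5 days at 37° C, 5% CO2. Viability by CellTiter-Glo luminescence, blank-corrected against cell-free medium and normalised to vehicle. IC50 from four-parameter logistic fit.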

CYP1A2 = target: T3, CYP1A2 (Homo sapiens, UniProt P05177); experiment: Biochemical assay for CYP enzyme inhibition, P450-Glo CYP1A2 Screening System; assay type: in vitro ADME
T3 construct: purchased Promega
T3 sequence (P05177 1-516): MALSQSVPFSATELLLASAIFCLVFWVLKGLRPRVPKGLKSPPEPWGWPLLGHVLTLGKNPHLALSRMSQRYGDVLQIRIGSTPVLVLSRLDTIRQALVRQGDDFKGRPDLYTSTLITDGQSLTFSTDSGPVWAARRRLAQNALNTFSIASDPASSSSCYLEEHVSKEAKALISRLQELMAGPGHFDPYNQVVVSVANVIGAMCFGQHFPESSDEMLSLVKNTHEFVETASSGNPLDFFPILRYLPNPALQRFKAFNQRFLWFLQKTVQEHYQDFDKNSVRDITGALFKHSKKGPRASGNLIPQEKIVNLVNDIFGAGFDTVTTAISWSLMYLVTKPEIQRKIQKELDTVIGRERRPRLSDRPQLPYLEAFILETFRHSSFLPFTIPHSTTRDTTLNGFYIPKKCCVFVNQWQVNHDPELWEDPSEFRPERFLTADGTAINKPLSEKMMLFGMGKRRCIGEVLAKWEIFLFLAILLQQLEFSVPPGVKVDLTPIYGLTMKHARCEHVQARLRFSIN
Method: as §1
P450-Glo™ CYP1A2 Screening System, (Promega);
as §2, §3
3.1. Inhibition Against CYP1A2:
as §4, with “Luciferin-ME (100 μM),” for “Luciferin-IPA (3 NM),”, “CYP1A2 (0.01 μmol/μL)” for “CYP3A4 (2 nM)”
as §5
Blank control group: The experimental method for the blank control group was the same as that for the test group, except that the test compound was not added and that CYP1A2 was replaced with CYP1A2 Membrance (0.01 μmol/μL).
as §6, §7

[2] = estimated from percentage inhibition, read-out: IC50 (μM) CYP3A4

Compound	IC50 (CYP3A4)	IC50 (hERG)	IC50 [1]	IC50 (CYP1A2)	IC50 (CYP3A4; [2])	IC50 (hERG; competition with affinity tracer 1 nM, 2 hours, read-out: IC50 (μM), hERG inhibition assay)	IC50 (CYP1A2; estimated from percentage inhibition, read-out: IC50 (μM) CYP1A2)
C[C@@H]1OCC2(CCN(c3ncc(Sc4ccnc(N5CC(C)(CS(C)(=O)=O)C5)c4Cl)nc3CO)CC2)[C@@H]1N [Example 29, (3-((3S,4S)-4-amino-3-methyl-2-oxa-8-azaspiro[4.5]decan-8-yl)-6-(3-chloro-2-(3-methyl-3-(methylsulfonylmethyl)azetidin-1-yl)pyridin-4-ylthio)pyrazin-2-yl)methanol]	> 10 µM	> 10 µM	40 nM	> 10 µM	–	–	–
CC(C)(O)C1CN(c2nccc(Sc3ncc(N4CCC5(CC4)Cc4ncccc4[C@H]5N)nc3N)c2Cl)C1 [Example 46, (S)-2-(1-(4-(3-amino-5-(5-amino-5,7-dihydrospiro[cyclopenta[b]pyridine-6,4′-piperidin]-1′-yl)pyrazin-2-ylthio)-3-chloropyridin-2-yl)azetidin-3-yl)propan-2-ol]	–	–	70 nM	–	> 10 µM	> 10 µM	> 10 µM
C[C@@H]1OCC2(CCN(c3ncc(Sc4ccnc(N5CC(C(C)(C)O)C5)c4Cl)nc3CO)CC2)[C@@H]1N [Example 12, 2-(1-(4-(5-((3S,4S)-4-amino-3-methyl-2-oxa-8-azaspiro[4.5]decan-8-yl)-6-(hydroxymethyl)pyrazin-2-ylthio)-3-chloropyridin-2-yl)azetidin-3-yl)propan-2-ol]	> 10 µM	> 10 µM	40 nM	> 10 µM	–	–	–
C[C@@H]1OCC2(CCN(c3ncc(Sc4ccnc(N5CC(C)(CO)C5)c4Cl)nc3CO)CC2)[C@@H]1N [Example 27, (3-((3S,4S)-4-amino-3-methyl-2-oxa-8-azaspiro[4.5]decan-8-yl)-6-(3-chloro-2-(3-(hydroxymethyl)-3-methylazetidin-1-yl)pyridin-4-ylthio)pyrazin-2-yl)methanol]	> 10 µM	> 10 µM	60 nM	> 10 µM	–	–	–
C[C@@H]1OCC2(CCN(c3ncc(Sc4ccnc(N5CC(CO)(CF)C5)c4Cl)nc3CO)CC2)[C@@H]1N [Example 42, (3-((3S,4S)-4-amino-3-methyl-2-oxa-8-azaspiro[4.5]decan-8-yl)-6-(3-chloro-2-(3-(fluoromethyl)-3-(hydroxymethyl)azetidin-1-yl)pyridin-4-ylthio)pyrazin-2-yl)methanol]	–	> 10 µM	100 nM	> 10 µM	> 10 µM	–	–
C[C@@H]1OCC2(CCN(c3ncc(Sc4ccnc(N5CC(C#N)(CO)C5)c4Cl)nc3CO)CC2)[C@@H]1N [Example 47, 1-(4-(5-((3S,4S)-4-amino-3-methyl-2-oxa-8-azaspiro[4.5]decan-8-yl)-6-(hydroxymethyl)pyrazin-2-ylthio)-3-chloropyridin-2-yl)-3-(hydroxymethyl)azetidine-3-carbonitrile]	> 10 µM	> 10 µM	40 nM	> 10 µM	–	–	–
C[C@@H]1OCC2(CCN(c3ncc(Sc4ccnc(NCC5(O)CC5)c4Cl)nc3CO)CC2)[C@@H]1N [Example 15, 1-((4-(5-((3S,4S)-4-amino-3-methyl-2-oxa-8-azaspiro[4.5]decan-8-yl)-6-(hydroxymethyl)pyrazin-2-ylthio)-3-chloropyridin-2-ylamino)methyl)cyclopropan-1-ol]	> 10 µM	> 10 µM	40 nM	> 10 µM	–	–	–
C[C@@H]1OCC2(CCN(c3ncc(Sc4ccnc(N5CCCC5CC(N)=O)c4Cl)nc3CO)CC2)[C@@H]1N (stereo partly drawn) [Example 19, 2-(1-(4-(5-((3S,4S)-4-amino-3-methyl-2-oxa-8-azaspiro[4.5]decan-8-yl)-6-(hydroxymethyl)pyrazin-2-ylthio)-3-chloropyridin-2-yl)pyrrolidin-2-yl)acetamide]	–	> 10 µM	190 nM	> 10 µM	> 10 µM	–	–
